These results are taken from US6172112A, “Retinoids and use thereof” (priority 1999, dated 2001).

Data set [1] has as its system NB4 cells. Conditions: alone; previously shown by Breitman and coworkers; cited from earlier work.
Data set [2] concerns NB4 cells. The data set is described as follows: retinoid induction of differentiation of NB4 cells (NBT). The format is cell-based, Human. The conditions noted are these: for EC30: read-out: ED30 NB4 cell differentiation; for EC50: NB-4, 96 h, read-out: ED50 (nM) NB4. The procedure:
NB4 cells were obtained from Dr. Waxman after he received them from Dr. M. Lanotte. […] The cell were grown at 37° C. in a humidified atmosphere of 5% CO2 in air. Cell density was estimated on an electronic particle counter (Coulter electronic, Hialeah, Fla.) and cell viability with trypan bleu dye exclusion.
(§1) Human leukemia cell line HL-60 and NB4 were used for measuring the ability of retinoids to induce terminal differentiation. Both cell lines are predominantly promyelocytes and are induced by retinoic acid to mature to cells with many characteristics of mature granulocytes. The induction of this differentiation is the basis for assaying one of the biological activities of retinoic acid analogues. For the differentiation assay, HL-60 or NB4 cells were grown in nutrient medium with fetal bovine serum as detailed by Breitman (15).
(§2) The percentage of cells that gained this marker was measured microscopically. The percentage of positive cells was then plotted as a function of the retinoid concentration to determine ED50 and ED30 values used in the formation of isoboles.

A further data set deals with JMML cells. The data set is described as follows: inhibition of JMML spontaneous CFU-GM colony formation. The conditions noted are these: Homo sapiens.
Data set [3] has as its system MNU-induced mammary cancers. The data set is described as follows: efficacy on MNU-induced mammary cancers. The conditions noted are these: 200 mg/kg diet. The format is in vivo, Sprague-Dawley rats.
Data set [4] in a line: body weight in MNU mammary cancer study.
Another data set in a line: in vivo toxicity. Conditions: preliminary data.
A further data set has as its system HL-60 cells. The data set is described as follows: retinoid induction of differentiation of HL-60 cells (NBT). The conditions noted are these: Homo sapiens, HL-60, 96 h; 4-day induction of differentiation; read-out: ED50 (nM) HL-60. In kind it is cell-based. The procedure: as §1, §2
The subject of data set [5] is NB4 cells. The data set is described as follows: retinoid metabolism in NB4 cells. In kind it is in vitro ADME.
Data set [6] relates to mouse skin papilloma. The conditions noted are these: ref (8); cited from earlier work.
Data set [7] has as its system mouse skin papilloma. The conditions noted are these: 45.9 nmol dose.
Experimental: The mouse skin antipapilloma assay measured the ED50 values for retinoid tumor inhibition on the dorsal skin of mice. The inhibition of mouse skin papilloma by retinoids was performed according to a modification of the procedure developed by Verma and Boutwell (14) as reported previously by Muccio et al. (8).
The UAB30 retinoids were evaluated next for their activity in preventing the chemical induction of papillomas on mouse skin (14).
Data set [8] relates to acute promyelocytic leukemia (APL). Conditions: patients with APL; cited from earlier work.
In another data set the target is T1, chick skin CRABP (Gallus gallus, UniProt A0A8V1AB82).
T1 sequence (A0A8V1AB82 88-225): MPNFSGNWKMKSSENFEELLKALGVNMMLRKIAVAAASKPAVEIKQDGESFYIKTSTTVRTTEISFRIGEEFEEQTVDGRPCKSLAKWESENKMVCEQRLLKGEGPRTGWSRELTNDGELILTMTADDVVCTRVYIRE
Kind of data set: chick skin CRABP radioligand binding assay. The conditions noted are these: [3H]-(all-E)-RA radioligand.

The next data set deals with T2, RARα (Homo sapiens, UniProt P10276).
T2 sequence (P10276 1-462): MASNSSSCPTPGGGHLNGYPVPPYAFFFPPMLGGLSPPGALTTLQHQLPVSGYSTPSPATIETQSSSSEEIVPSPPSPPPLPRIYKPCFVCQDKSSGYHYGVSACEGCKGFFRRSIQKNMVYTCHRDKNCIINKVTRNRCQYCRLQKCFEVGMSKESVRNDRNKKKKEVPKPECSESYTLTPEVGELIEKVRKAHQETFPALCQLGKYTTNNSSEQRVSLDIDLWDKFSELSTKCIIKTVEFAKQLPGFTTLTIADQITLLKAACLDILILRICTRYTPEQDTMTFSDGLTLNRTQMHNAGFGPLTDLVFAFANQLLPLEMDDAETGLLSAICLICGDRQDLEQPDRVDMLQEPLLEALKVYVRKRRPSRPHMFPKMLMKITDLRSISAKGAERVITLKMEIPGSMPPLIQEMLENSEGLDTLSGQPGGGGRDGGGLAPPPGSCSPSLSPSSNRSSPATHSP
Conditions: CV-1 cells.

Where [9] appears, read: read-out: normalized percent inhibition of CFU-GM colony growth, patient J83 (%).
Setting [10] is: read-out: normalized percent inhibition of CFU-GM colony growth, patient J84 (%).

Entries after “also recorded” stand apart in the source; their conditions may differ. Like-named read-outs stand apart in the source and are kept apart here. Bounds are passed on as bounds.

Experimental for JMML cells: Mononuclear cells were separated by density gradient centrifugation, washed, and frozen in aliquots. […] No growth factors or other exogenous stimuli were added to the cultures. UAB retinoids and retinoic acid isomers were dissolved in either 100% ethanol or DMSO. Appropriate dilutions were made, and controls using the respective ethanol or DMSO concentration were set up in parallel. Varying doses of retinoids were added only once, 24 hours after initiation of the soft agar assays, by pipetting the retinoid solution on top of the soft agar and allowing the solution to enter the agar and interact with the cells by diffusion. The cultures were incubated for 14 days at 37° C. in a humidified atmosphere with 5% CO2.
Experimental for RARα: The antagonistic effects of UAB30 retinoids on the transcription of RARα were determined in CV-1 cells. The methods are nearly identical to those used to perform transcriptional assays. […] After 24 hours, cells were harvested and the transcriptional effects were measured relative CAT activity, after correction with β-gal activity for transfection efficiency. […] All experiments were performed in triplicate, and the data were averaged. […] These assays were performed in CV-1 cells with the RAR or RXR gene and the chloramphenicol acetyltransferase (CAT) reporter gene containing TREpal with a thymidine kinase promoter [(TREpal)2 -tk-CAT]. Twenty-four hours after transfection, cells were treated with a single dose of retinoid and the cell extracts were assayed for b-galactosidase and CAT activity. The antagonistic effects of UAB30 retinoids on the transcription of RAR-α were also determined in CV-1 cells. The methods are nearly identical to those used to perform transcriptional assays. These studies utilized the CAT reporter gene [(TREpal)2 -tk-CAT]. […] After 24 hours, cells were harvested and the transcriptional effects were measured in relative CAT activity, after correction with β-galactosidase activity for transfection efficiency. […] Experiments were performed in triplicate and the data were averaged.

As for `CC1=C(/C=C/C(C)=C/C=C/C(C)=C/C(=O)Nc2ccc(O)cc2)C(C)(C)CCC1` [4-HPR, 4-hydroxyphenylretinamide], the “NB4 cell differentiation” value in the data set with NB4 cells [1] is on record as “does not induce NB4 cells to differentiate”.

Regarding `CC(=C/C=C/C(C)=C/C(=O)O)/C=C1\CCCc2ccccc21` [(9Z)-UAB30, (2E,4E,6E,8E)-8-(3',4'-Dihydro-1'(2'H)-naphthalen-1'-ylidene)3,7-dimethyl-2,4,6-octatrienoic acid], the EC30 in the data set with NB4 cells [2] (Homo sapiens, NB-4, 72 h) was greater than 10000 µM. Moreover, the EC50 with NB4 cells [2] (Homo sapiens) is 10000 nM; in the data set on HL-60 cells, 8000 nM. In the data set on NB4 cells [2] (retinoid alone), the “NB4 cell differentiation” value is on record as “no effect”. The inhibition – broadly, the change of the read-out against control, counted positive when it falls – at 0.1 µM in the data set with JMML cells (setting [9]) is 76%; with JMML cells (setting [10]), 44%. Also, the inhibition at 1 µM in the data set with JMML cells (setting [9]) was determined as 79%; in the data set on JMML cells (setting [10]) it was 39%. In the data set with JMML cells (setting [10]), the inhibition at 0.01 µM came to 3%. Further, in data set [3], the “growth of MNU-induced mammary cancers” value is recorded as “inhibited the growth of the MNU-induced mammary cancers”. Besides, the “average mammary tumor weight/rat” value in data set [3] (26 days post MNU) stood at 0.05 grams; in data set [3] (33 days post MNU), 0.05 grams; in [3] (40 days post MNU) it was 0.10 grams; in data set [3] (47 days post MNU), 0.30 grams; in data set [3] (54 days post MNU), 0.45 grams; in [3] (61 days post MNU), 0.55 grams. Besides, the “average mammary tumor weight/rat” value worked out at 0.55 grams in data set [3] (68 days post MNU); 0.55 grams in data set [3] (75 days post MNU); 0.70 grams in data set [3] (82 days post MNU); 0.90 grams in data set [3] (89 days post MNU); 1.00 grams in data set [3] (96 days post MNU); 1.35 grams in [3] (103 days post MNU). For the same compound, the “average mammary tumor weight/rat” value in data set [3] (110 days post MNU) amounted to 1.75 grams; in [3] (117 days post MNU), 2.00 grams; in data set [3] (124 days post MNU), 2.20 grams; in data set [3] (131 days post MNU), 2.35 grams. The “overall body growth” value in data set [4] (200 mg/kg diet) is on record as “no obvious effect”. The average body weight/rat amounted to 133 grams in data set [4] (43 days of age, 200 mg/kg diet from day 53); 158 grams in data set [4] (57 days of age, 200 mg/kg diet); 174 grams in data set [4] (64 days of age, 200 mg/kg diet); 188 grams in data set [4] (71 days of age, 200 mg/kg diet); 197 grams in data set [4] (78 days of age, 200 mg/kg diet); 203 grams in data set [4] (85 days of age, 200 mg/kg diet). In addition, the average body weight/rat worked out at 210 grams in data set [4] (92 days of age, 200 mg/kg diet); 211 grams in [4] (99 days of age, 200 mg/kg diet); 215 grams in data set [4] (106 days of age, 200 mg/kg diet); 216 grams in data set [4] (113 days of age, 200 mg/kg diet); 218 grams in data set [4] (120 days of age, 200 mg/kg diet); 223 grams in data set [4] (127 days of age, 200 mg/kg diet). In addition, the average body weight/rat amounted to 227 grams in data set [4] (134 days of age, 200 mg/kg diet); 236 grams in data set [4] (141 days of age, 200 mg/kg diet); 234 grams in data set [4] (149 days of age, 200 mg/kg diet); 236 grams in data set [4] (155 days of age, 200 mg/kg diet); 238 grams in data set [4] (162 days of age, 200 mg/kg diet); 242 grams in data set [4] (169 days of age, 200 mg/kg diet). Further, the average body weight/rat amounted to 243 grams in data set [4] (176 days of age, 200 mg/kg diet) and 244 grams in data set [4] (183 days of age, 200 mg/kg diet). The “toxicity” value in “in vivo toxicity” is recorded as “much less toxic than 9-cis-retinoic acid”. In addition, the “metabolism / metabolic stability” value in the data set with NB4 cells [5] is “metabolically stable for 5 days”.

As to `CC1=C(/C=C/C(C)=C/C=C/C(C)=C/C(=O)O)C(C)(C)CCC1` [(all-E)-RA, all-trans-retinoic acid, reference compound], the EC50 is 610 nM in the data set on NB4 cells [2] (Homo sapiens, 4-day induction of differentiation) and 120 nM in the data set on HL-60 cells. In addition, the EC30 amounted to 0.05 µM in the data set with NB4 cells [2] (in combination with 9-cis-UAB30 (1:10), day 3); 2.8 µM with NB4 cells [2] (in combination with all-trans-UAB30 (1:10)); 0.81 µM in the data set on NB4 cells [2] (retinoid alone, 3 days). In addition, the inhibition at 0.1 µM in the data set on JMML cells (read-out: normalized percent inhibition of CFU-GM colony growth, patient J43 (%), 10^-7 M) is 74%; in the data set on JMML cells (read-out: normalized percent inhibition of CFU-GM colony growth, patient J83 (%), 10^-7 M), 88%. Further, the inhibition at 0.01 µM in the data set with JMML cells (read-out: normalized percent inhibition of CFU-GM colony growth, patient J84 (%), 10^-8 M) was 33%. Also, the inhibition at 1 µM turned out to be 85% in the data set with JMML cells (read-out: percent inhibition of CFU-GM colony growth (not normalized), 10^-6 M, J43 patient cells); 78% in the data set with JMML cells (read-out: percent inhibition of CFU-GM colony growth (not normalized), 10^-6 M, J83 patient cells); 61% in the data set on JMML cells (read-out: percent inhibition of CFU-GM colony growth (not normalized), 10^-6 M, J84 patient cells). For the same compound, the “ED50 skin antipapilloma assay” value in the data set on mouse skin papilloma [6] was 3.0 nmol. In addition, in the data set with mouse skin papilloma [7], the “prevention of papilloma (tumor) formation” value amounted to 95%. Also, the complete remission rate in data set [8] is given as 90%. In addition, the half-inhibitory concentration (IC50) (usually the midpoint of a concentration-inhibition curve) on chick skin CRABP was 0.6 µM.

For the compound `CCCCCCCOc1cc2c(cc1/C(C)=C/c1ccc(C(=O)O)cc1)C(C)(C)CCS2(=O)=O` [Ro-41-5253], the “antagonism of (all-E)-RA induced RARα transcription” value on RARα is reported as “two-fold more active; also recorded: exhibited antagonism at each concentration of (all-E)-RA”.
